Data on 9 molecules can be found in patent publication US20210345609A1, “AMINOCARBOXYLIC ACID CHELATING AGENT WITH ANTIFUNGAL ACTIVITY AND SYNERGISTIC USE THEREOF WITH OTHER STERILANTS” (priority 2020, published 2021).

The test system of one assay is Pyricularia oryzae. Description: microbe, parasite or virus in culture. It is filed as cell-based.
The next assay has as its system Fusarium Fg2021. Briefly: Indoor in vivo efficacy on Fusarium, wheat coleoptiles. Further details: species or system Fusarium Fg2021 on wheat (Yumai 35) seedlings. Particulars: Fg2021, 7 d, vs control. Here is the method: Seeds of Yumai 35 were sterilized with 0.1% mercury dichloride for 5 min, rinsed with sterile water for 3 times and immersed for 2 h. The seeds were evenly placed in plastic boxes laid with double layers of sterile filter paper with 30 seeds a box. Cultivation was carried out at 25° C. with 90% humidity and a cycle of 12 h light and 12 h dark in a light incubator for 2 d. […] 12 h later, tips of the coleoptiles were cut. Cut wounds were inoculated with 5 μL of 5×10^5 cells/mL Fg2021 spore solution respectively. Cultivation was carried out in the light incubator. 7 d later, length of disease spot was investigated.

The test system of another assay is wheat scab (Fg2021). Type of assay: in vivo. Particulars: wheat at flowering, vs control group.
For assay [1], the system named is Botrytis cinerea. Briefly: Indoor in vivo efficacy on Botrytis cinerea, cucumber leaves. Particulars: 4 d, vs control.
The test system of another assay is pathogenic Phytophthora. Description: Hyphae growth rate method (PDA plate method). It is filed as cell-based. The source says:
Step 1): Setting of concentration gradients of drugs.
Step 2): Determination of EC50 values of drugs against pathogenic Phytophthora with a hyphae growth rate method (PDA plate method)

A further assay deals with F. asiaticum. Briefly: Spore germination method, indoor toxicity on Fusarium. It is filed as cell-based. Here is the method: Experimental methods and specific experimental steps for indoor toxicology determination of Fusarium were as follows:
Step (1): Collection of spores. Five plates (5 mm) evenly distributed on the edge of a medium for Fusarium cultured at 25° C. for 3 d were taken and placed in the CMC medium. After culture under shaking at 175 rpm and 25° C. for 5 d, a filtrate was collected with three layers of sterile lens-cleaning paper. Centrifuging was carried out at 10,000 rpm for 10 min. Washing was carried out twice with sterile water (10,000 rpm, 10 min/time). A spore concentration was adjusted to 1×10^4 ml^1.
Step (2): Setting of concentration gradients of drugs. […] Drugs and spore solutions were mixed, drawn to a cell culture plate and incubated in a thermostat incubator at 25° C. for a period of time.
Step (3): Investigation results and statistical analysis. When a spore germination rate of control group was >90%, spore germination was observed and analyzed statistically.
Spore germination rate (%)=number of germinated spores/number of inspected spores×100
Corrected germination rate (%)=(germination rate for control−germination rate for treatment)/([…])×100

The test system of a further assay is F. graminearum. Description: microbe, parasite or virus in culture. Type of assay: cell-based.
The next assay has as its system F. oxysporum. Briefly: Spore germination method, indoor toxicity on Fusarium. It is filed as cell-based.
A further assay deals with F. solani. The description is as above. It is filed as cell-based.
For another assay, the system named is F. verticilloides. Described as above. Type of assay: cell-based.
The subject of assay [2] is Botrytis cinerea. Description: Spore germination method on Botrytis cinerea. Type of assay: cell-based.
The next assay concerns Penicillium. Description: Hyphae growth rate method (PDA plate method). It is filed as cell-based.
A further assay deals with Trichoderma. Briefly: Hyphae growth rate method (PDA plate method). Type of assay: cell-based.
The next assay deals with Pyricularia oryzae Guy11. Type of assay: in vivo, Pyricularia oryzae Guy 11 on barley leaves. The conditions noted are these: Guy11, 6 d.
[3] abbreviates: 7.5 mM sprayed on wheat coleoptiles.
The mark [4] stands for this setting: 15 μM sprayed on wheat coleoptiles.

In brackets after ≈: the same amount, converted by molar mass. Where two headings read alike, the source gives them in different places.

`O=C([O-])CN(CCN(CC(=O)[O-])CC(=O)[O-])CC(=O)[O-].[Na+].[Na+].[Na+].[Na+]` [EDTANa4] came in with a half-maximal effective concentration (EC50) in the assay with Pyricularia oryzae of 9.01 µg/mL. The “length of disease spot” value with Fusarium Fg2021 (setting [3]) was “significantly shorter disease spots”.
Consider `COC(=O)Nc1nc2ccccc2[nH]1` [carbendazim, reference compound], for which, in the assay with wheat scab (Fg2021) (140 g ha^−1, field), the “disease of wheat ears (diseased spikelets)” value (shortened to “disease of wheat ears”) is “significantly lighter disease”.
With `O=C([O-])CN(CCN(CC(=O)[O-])CC(=O)[O-])CC(=O)[O-].[Mg+2].[Mg+2]` [EDTAMg2], the disease spots result with Botrytis cinerea [1] (30 mM sprayed on cucumber leaves) is on record as “significantly shorter disease spots”.
`O=C([O-])CN(CCN(CC(=O)[O-])CC(=O)O)CC(=O)[O-].[Na+].[Na+].[Na+]` [EDTANa3] registered a concentration giving a half-maximal response (EC50) with pathogenic Phytophthora of 17.56 µg/mL.
With `O=C(O)CN(CCN(CC(=O)O)CC(=O)O)CCN(CC(=O)O)CC(=O)O` [DTPA, diethylenetriaminepentaacetic acid], the EC50 in the assay with F. asiaticum was determined as 8.76 µg/mL (≈ 22.3 µM); in the assay with F. graminearum (F. graminearum, spore germination), 16.22 µg/mL (≈ 41.2 µM); in the assay on F. oxysporum (F. oxysporum, spore germination) it was 17.77 µg/mL (≈ 45.2 µM); with F. solani (F. solani, spore germination) it was 17.80 µg/mL (≈ 45.3 µM); in the assay on F. verticilloides (F. verticilloides, spore germination) it was 18.82 µg/mL (≈ 47.8 µM); in the assay on Pyricularia oryzae, 9.45 µg/mL (≈ 24 µM). The EC50 with Botrytis cinerea [2] (spore germination) amounted to 1.85 µg/mL (≈ 4.7 µM); in the assay with Penicillium (hyphae growth rate) it was 4.3704 µg/mL (≈ 11.1 µM); with Trichoderma (hyphae growth rate) it was 7.6421 µg/mL (≈ 19.4 µM); with pathogenic Phytophthora, 20.35 µg/mL (≈ 51.7 µM). In the assay with Fusarium Fg2021 (setting [4]), the “length of disease spot” value is “significantly shorter disease spots”. For the same molecule, in the assay on Botrytis cinerea [1] (10 mM sprayed on cucumber leaves), the disease spots result is listed as “significantly shorter disease spots”. In addition, in the assay with wheat scab (Fg2021) (7 g ha^−1, field), the “disease of wheat ears” value is given as “significantly lighter disease”.
As to `O=C(O)CN(CCN(CC(=O)O)CC(=O)O)CC(=O)O` [EDTA, ethylenediaminetetraacetic acid], the 50% effective concentration (EC50) stood at 8.76 µg/mL (≈ 30 µM) with F. asiaticum (read-out: EC50); 17.8 µg/mL (≈ 60.8 µM) in the assay with F. graminearum (Fusarium graminearum); 17.7 µg/mL (≈ 60.5 µM) in the assay on F. oxysporum (Fusarium oxysporum); 17.5 µg/mL (≈ 59.9 µM) in the assay on F. solani (Fusarium solani); 19 µg/mL (≈ 65.1 µM) with F. verticilloides; 9.75 µg/mL (≈ 33.4 µM) with Pyricularia oryzae. Also, the EC50 with Botrytis cinerea [2] stood at 1.63 µg/mL (≈ 5.58 µM); in the assay on Penicillium it was 3.15 µg/mL (≈ 10.8 µM); in the assay with Trichoderma it was 6.12 µg/mL (≈ 20.9 µM); with pathogenic Phytophthora (read-out: EC50), 18.2 µg/mL (≈ 62.4 µM). Besides, in the assay with Fusarium Fg2021 (setting [3]), the “length of disease spot” value is “significantly shorter disease spots”. The disease spots result with Botrytis cinerea [1] (25 mM sprayed on cucumber leaves) is “significantly shorter disease spots”. In the assay on wheat scab (Fg2021) (7 g ha^−1, field), the “disease of wheat ears” value is “significantly lighter disease”.
In the case of `O=C([O-])CN(CCN(CC(=O)[O-])CC(=O)[O-])CCN(CC(=O)[O-])CC(=O)[O-].[H+].[H+].[Na+].[Na+].[Na+]` [DTPANa3], the EC50 with Botrytis cinerea [2] (spore germination) stood at 1.88 µg/mL. The disease spots result with Pyricularia oryzae Guy11 (10 mM sprayed on barley leaves) was “significantly reduced disease spots”.
`O=C([O-])CN(CCN(CC(=O)[O-])CC(=O)[O-])CCN(CC(=O)[O-])CC(=O)[O-].[Na+].[Na+].[Na+].[Na+].[Na+]` [DTPANa5] yielded a half-maximal effective concentration (EC50) in the assay on Pyricularia oryzae of 9.32 µg/mL. The “length of disease spot” value in the assay with Fusarium Fg2021 (setting [4]) is on record as “significantly shorter disease spots”.
For `O=C([O-])CN(CCN(CC(=O)[O-])CC(=O)O)CC(=O)O.[Na+].[Na+]` [EDTANa2], the concentration giving a half-maximal response (EC50) was determined as 1.12 µg/mL in the assay with Botrytis cinerea [2] (spore germination) and 19.39 µg/mL with pathogenic Phytophthora. For the same molecule, the disease spots entry with Pyricularia oryzae Guy11 (30 mM sprayed on barley leaves) is on record as “significantly reduced disease spots”.
